{
  "source": "ChEMBL document CHEMBL6103672",
  "about": "“Discovery of HMPL-306 (Ranosidenib), a New Potent and Selective Dual Inhibitor of Mutant IDH1 and 2 in Clinical Development for Cancer Treatment” (ACS Med Chem Lett, 2025)",
  "key": {"[1]": {"assay": "Apparent permeability across basolateral to apical side in human Caco-2 cells at 10 uM incubated for 1 hrs by LC-MS/MS analysis"}, "[2]": {"assay": "Inhibition of IDH1 R132H mutant in human U-87 MG cells incubated for 72 hrs by measuring 2-HG production by fluorescence based analysis", "format": "functional, cell-based, U-87MG ATCC", "conditions": "Homo sapiens, U-87 MG, 72 h"}, "[3]": {"assay": "Half life in male ICR mouse at 10 mg/kg, po measured after 8 hrs by LC/MS/MS analysis", "format": "ADME, organism-based", "conditions": "in vivo"}, "[4]": {"assay": "Volume of distribution at steady state in male ICR mouse at 2.5 mg/kg, iv measured after 8 hrs by LC/MS/MS analysis", "format": "ADME, organism-based", "conditions": "in vivo, read-out: Vdss"}, "[5]": {"assay": "Metabolic stability in male SD rat liver microsomes assessed as parent compound remaining at 1 uM measured after 30 mins in presence of NADPH by LC-MS analysis", "format": "ADME, Microsome", "conditions": "Sprague-Dawley, read-out: Stability"}, "[6]": {"assay": "AUC(0 to t) in male ICR mouse at 10 mg/kg, po measured after 8 hrs by LC/MS/MS analysis", "format": "ADME, organism-based", "conditions": "in vivo"}, "[7]": {"assay": "Oral bioavailability in male ICR mouse at 10 mg/kg measured after 8 hrs by LC/MS/MS analysis", "format": "ADME, organism-based", "conditions": "in vivo"}, "[8]": {"assay": "Cmax in male ICR mouse at 10 mg/kg, po measured after 8 hrs by LC/MS/MS analysis", "format": "ADME, organism-based", "conditions": "in vivo"}, "[9]": {"assay": "Clearance in male ICR mouse at 2.5 mg/kg, iv measured after 8 hrs by LC/MS/MS analysis", "format": "ADME, organism-based", "conditions": "in vivo"}, "[10]": {"assay": "Metabolic stability in male ICR mouse liver microsomes assessed as parent compound remaining at 1 uM measured after 30 mins in presence of NADPH by LC-MS analysis", "format": "ADME, Microsome", "conditions": "read-out: Stability"}, "[11]": {"assay": "AUC(0 to infinity) in male ICR mouse at 10 mg/kg, po measured after 8 hrs by LC/MS/MS analysis", "format": "ADME, organism-based", "conditions": "in vivo"}, "[12]": {"assay": "Inhibition of IDH2 R140Q mutant in human U-87 MG cells incubated for 72 hrs by measuring 2-HG production by fluorescence based analysis", "format": "functional, cell-based, U-87MG ATCC", "conditions": "Homo sapiens, U-87 MG, 72 h"}, "[13]": {"assay": "Apparent permeability across apical to basolateral side in human Caco-2 cells at 10 uM incubated for 1 hrs by LC-MS/MS analysis"}, "[14]": {"assay": "In vivo inhibition of 2-HG in BALB/c nude mouse xenografted with human U-87 MG cells harboring IDH2 R140Q mutant at 25 mg/kg, po measured after 24 hrs post dose", "format": "functional"}, "UGT1A1": {"target": "T1, UGT1A1 (Homo sapiens, UniProt P22309)", "T1 sequence (P22309 whole entry)": "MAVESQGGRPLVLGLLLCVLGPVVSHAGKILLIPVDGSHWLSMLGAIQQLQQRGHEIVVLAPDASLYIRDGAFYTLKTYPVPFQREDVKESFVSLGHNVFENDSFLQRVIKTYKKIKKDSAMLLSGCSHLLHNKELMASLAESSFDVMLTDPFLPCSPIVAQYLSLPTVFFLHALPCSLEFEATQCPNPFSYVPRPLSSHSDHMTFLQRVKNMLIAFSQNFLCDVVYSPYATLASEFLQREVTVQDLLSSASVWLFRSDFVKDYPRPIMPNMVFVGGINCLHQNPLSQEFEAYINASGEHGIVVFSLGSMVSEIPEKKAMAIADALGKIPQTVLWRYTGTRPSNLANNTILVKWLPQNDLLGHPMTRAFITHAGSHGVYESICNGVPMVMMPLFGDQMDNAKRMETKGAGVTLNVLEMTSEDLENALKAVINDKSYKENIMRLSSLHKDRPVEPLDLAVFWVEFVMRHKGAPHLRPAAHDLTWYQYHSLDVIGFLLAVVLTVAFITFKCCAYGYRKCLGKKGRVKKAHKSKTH", "assay": "Inhibition of UGT1A1 (unknown origin) at 10 uM relative to control", "format": "ADME"}, "[15]": {"assay": "Inhibition of IDH2 R140Q mutant in human TF-1 cells incubated for 72 hrs by measuring 2-HG production by fluorescence based analysis", "format": "functional, cell-based", "conditions": "TF-1, 72 h"}, "[16]": {"target": "Isocitrate dehydrogenase [NADP], mitochondrial (Homo sapiens, UniProt P48735, R140Q)", "sequence (P48735 40-452 R140Q limits assumed)": "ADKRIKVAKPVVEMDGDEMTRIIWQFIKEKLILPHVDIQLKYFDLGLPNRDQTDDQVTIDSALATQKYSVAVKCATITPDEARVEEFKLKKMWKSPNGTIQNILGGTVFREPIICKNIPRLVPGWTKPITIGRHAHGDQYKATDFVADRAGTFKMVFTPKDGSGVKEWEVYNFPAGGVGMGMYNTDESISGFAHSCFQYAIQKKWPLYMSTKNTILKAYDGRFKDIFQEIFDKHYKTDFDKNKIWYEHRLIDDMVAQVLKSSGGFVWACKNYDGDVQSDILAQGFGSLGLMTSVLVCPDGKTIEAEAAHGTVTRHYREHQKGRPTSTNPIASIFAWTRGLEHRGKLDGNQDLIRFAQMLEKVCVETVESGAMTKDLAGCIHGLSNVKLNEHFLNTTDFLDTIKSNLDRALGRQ", "assay": "Inhibition of IDH2 R140Q mutant (unknown origin) using alpha-ketoglutarate as substrate preincubated with compound for 16 hrs followed by substrate addition and measured after 1 hr in presence of NADPH by fluorescence based analysis"}, "[17]": {"assay": "AUC(0 to t) in male ICR mouse at 10 mg/kg, po measured upto 24 hrs by LC/MS/MS analysis", "format": "ADME, organism-based", "conditions": "in vivo"}, "Adenosine receptor A3": {"target": "T2, Adenosine receptor A3 (Homo sapiens, UniProt P0DMS8)", "T2 sequence (P0DMS8 whole entry)": "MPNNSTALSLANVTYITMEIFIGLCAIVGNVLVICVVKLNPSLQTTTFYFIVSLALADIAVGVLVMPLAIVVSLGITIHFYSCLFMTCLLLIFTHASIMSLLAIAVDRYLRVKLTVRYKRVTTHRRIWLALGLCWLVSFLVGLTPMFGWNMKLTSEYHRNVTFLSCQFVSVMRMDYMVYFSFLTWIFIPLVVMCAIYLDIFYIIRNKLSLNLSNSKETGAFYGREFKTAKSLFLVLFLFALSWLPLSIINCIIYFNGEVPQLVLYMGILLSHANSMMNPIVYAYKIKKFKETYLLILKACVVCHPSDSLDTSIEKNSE", "assay": "Inhibition of adenosine A3 receptor (unknown origin)", "format": "toxicity"}, "[18]": {"assay": "In vivo inhibition of 2-HG in BALB/c nude mouse xenografted with human U-87 MG cells harboring IDH2 R140Q mutant at 25 mg/kg, po measured after 40 hrs post dose", "format": "functional"}, "[19]": {"assay": "Inhibition of IDH2 R172K mutant in human HEK293 cells incubated for 72 hrs by measuring 2-HG production by fluorescence based analysis", "format": "functional, cell-based", "conditions": "HEK293, 72 h"}, "[20]": {"assay": "Inhibition of IDH1 R132C mutant in human HT-1080 cells incubated for 72 hrs by measuring 2-HG production by fluorescence based analysis", "format": "functional, cell-based", "conditions": "HT-1080, 72 h"}, "[21]": {"assay": "In vivo inhibition of 2-HG in BALB/c nude mouse xenografted with human HT-1080 cells harboring IDH1 R132C mutant at 50 mg/kg, po measured after 24 hrs post dose", "format": "functional"}, "[22]": {"assay": "In vivo inhibition of 2-HG in BALB/c nude mouse xenografted with human HT-1080 cells harboring IDH1 R132C mutant at 50 mg/kg, po measured after 40 hrs post dose", "format": "functional"}, "[23]": {"assay": "Inhibition of IDH1 R132H mutant in human TF-1 cells incubated for 72 hrs by measuring 2-HG production by fluorescence based analysis", "format": "functional, cell-based", "conditions": "TF-1, 72 h"}, "[24]": {"assay": "Ratio of drug concentration in brain to plasma of BALB/c nude mouse xenografted with human U-87 MG cells harboring IDH2 R140Q mutant at 50 mg/kg measured after 16 hrs by LC/MS/MS analysis", "format": "ADME, organism-based", "conditions": "read-out: BPR"}, "[25]": {"assay": "Ratio of drug concentration in brain to plasma of BALB/c nude mouse xenografted with human U-87 MG cells harboring IDH2 R140Q mutant at 50 mg/kg measured after 24 hrs by LC/MS/MS analysis", "format": "ADME, organism-based", "conditions": "read-out: BPR"}},
  "data": [
    {"smiles": "C[C@@H](Nc1nc(N[C@H](C)C(F)(F)F)nc(C2=C(F)[C@@H](O)CCC2)n1)C(F)(F)F", "values": [
      {"measurement": "Papp B→A at 1 h, 10 µM", "setting": "[1]", "value": 25.9, "unit": "×10⁻⁶ cm/s"},
      {"measurement": "IC50", "setting": "[2]", "value": 0.1, "unit": "µM"},
      {"measurement": "half-life", "setting": "[3]", "value": 2, "unit": "h"},
      {"measurement": "Vd", "setting": "[4]", "value": 1.16, "unit": "L/kg"},
      {"measurement": "remaining at 0.5 h, 1 µM", "setting": "[5]", "value": 92.7, "unit": "%"},
      {"measurement": "AUC(0-t) at 8 h", "setting": "[6]", "value": 14800, "unit": "ng·h/mL"},
      {"measurement": "bioavailability", "setting": "[7]", "value": 134, "unit": "%"},
      {"measurement": "Cmax", "setting": "[8]", "value": 4950, "unit": "ng/mL"},
      {"measurement": "clearance", "setting": "[9]", "value": 14.1, "unit": "mL/min/kg"},
      {"measurement": "remaining at 0.5 h, 1 µM", "setting": "[10]", "value": 86.2, "unit": "%"},
      {"measurement": "AUC(0-inf)", "setting": "[11]", "value": 15800, "unit": "ng·h/mL"},
      {"measurement": "IC50", "setting": "[12]", "value": 0.042, "unit": "µM"},
      {"measurement": "Papp A→B at 1 h, 10 µM", "setting": "[13]", "value": 46.8, "unit": "×10⁻⁶ cm/s"}
    ]},
    {"smiles": "CC(C)(O)CNc1nc(Nc2ccnc(C(F)(F)F)c2)nc(-c2cccc(C(F)(F)F)n2)n1", "note": "[ENASIDENIB]", "values": [
      {"measurement": "inhibition (INH)", "setting": "[14]", "value": 87, "unit": "%"},
      {"measurement": "inhibition at 10 µM", "setting": "UGT1A1", "value": 76.1, "unit": "%"},
      {"measurement": "IC50", "setting": "[15]", "value": 0.055, "unit": "µM"},
      {"measurement": "IC50", "setting": "[16]", "value": 0.037, "unit": "µM"},
      {"measurement": "half-life", "setting": "[3]", "value": 3.3, "unit": "h"},
      {"measurement": "AUC(0-t) at 24 h", "setting": "[17]", "value": 22900, "unit": "ng·h/mL"},
      {"measurement": "IC50", "setting": "Adenosine receptor A3", "value": 0.012, "unit": "µM"},
      {"measurement": "Vd", "setting": "[4]", "value": 1.72, "unit": "L/kg"},
      {"measurement": "bioavailability", "setting": "[7]", "value": 95.1, "unit": "%"},
      {"measurement": "Cmax", "setting": "[8]", "value": 1870, "unit": "ng/mL"},
      {"measurement": "inhibition (INH)", "setting": "[18]", "value": 37, "unit": "%"},
      {"measurement": "clearance", "setting": "[9]", "value": 6.9, "unit": "mL/min/kg"},
      {"measurement": "AUC(0-inf)", "setting": "[11]", "value": 23000, "unit": "ng·h/mL"},
      {"measurement": "IC50", "setting": "[19]", "value": 5.17, "unit": "µM"},
      {"measurement": "IC50", "setting": "[12]", "value": 0.043, "unit": "µM"}
    ]},
    {"smiles": "N#Cc1ccnc(N2C(=O)CC[C@H]2C(=O)N(c2cncc(F)c2)[C@H](C(=O)NC2CC(F)(F)C2)c2ccccc2Cl)c1", "note": "[IVOSIDENIB]", "values": [
      {"measurement": "IC50", "setting": "[20]", "value": 0.009, "unit": "µM"},
      {"measurement": "inhibition in vivo at 50 mg/kg", "setting": "[21]", "value": 78, "unit": "%"},
      {"measurement": "IC50", "setting": "[2]", "value": 0.032, "unit": "µM"},
      {"measurement": "half-life", "setting": "[3]", "value": 2.6, "unit": "h"},
      {"measurement": "AUC(0-t) at 24 h", "setting": "[17]", "value": 7090, "unit": "ng·h/mL"},
      {"measurement": "Vd", "setting": "[4]", "value": 1.94, "unit": "L/kg"},
      {"measurement": "bioavailability", "setting": "[7]", "value": 64.5, "unit": "%"},
      {"measurement": "Cmax", "setting": "[8]", "value": 1270, "unit": "ng/mL"},
      {"measurement": "clearance", "setting": "[9]", "value": 15.2, "unit": "mL/min/kg"},
      {"measurement": "AUC(0-inf)", "setting": "[11]", "value": 7100, "unit": "ng·h/mL"},
      {"measurement": "inhibition in vivo at 50 mg/kg", "setting": "[22]", "value": 50, "unit": "%"},
      {"measurement": "IC50", "setting": "[23]", "value": 0.068, "unit": "µM"}
    ]},
    {"smiles": "C[C@@H](Nc1nc(N[C@H](C)C(F)(F)F)nc(-c2cccc(Cl)n2)n1)C(F)(F)F", "note": "[VORASIDENIB]", "values": [
      {"measurement": "Kp at 16 h", "setting": "[24]", "value": 1.4},
      {"measurement": "Kp at 24 h", "setting": "[25]", "value": 1.2}
    ]}
  ]
}
